How the values were obtained:
[1] = test system: soybean plants (cv. “Delta Pine”); experiment: Reduction of ethylene formation in leaves of soybean plants (gas chromatography); format: in vivo; settings: for Ethylene Evolution per Unit Leaf Weight [% of Control]: greenhouse, leaf spray 750 l/ha, 24 hours after treatment, shoots wilted 10 min, incubated 60 min, g/ha of ai: Co++ 40, pyraclostrobin 100, salicylic acid 500
Description: Soybean plants were raised under greenhouse conditions with two plants each per 12-cm pot. Spray treatments of the leaves were carried out with a volume of liquid of 750 l/ha when the plants had developed one to two trifoliate leaves. 24 hours after treatment, the shoots of the soybean plants were dissected above the cotyledons and wilted for 10 minutes under laboratory conditions. Shoots representing a distinct treatment were incubated for 60 minutes under laboratory conditions in a 100-ml Erlenmeyer flask sealed with a rubber cap. Thereafter, gas samples were taken and analyzed for their ethylene content by gas chromatography.
Reduction of ethylene formation in leaves of soybean plants (cv. “Delta Pine”)

[2] = test system: soybeans (cv. “Embrapa 48”); experiment: Yield improvement of soybeans naturally infected with Phakopsora pachyrhizi; format: in vivo, soybean; settings: as in Example 3; pyraclostrobin 112.5 g/ha, Co++ 29 g/ha, alone or combined
Text: Seeds of soybean cv. “Embrapa 48” were planted and grown under standard conditions with adequate supply of water and nutrients. Infection with Phakopsora pachyrhizi occurred naturally. The active ingredients have been applied twice, 62 and 68 days after seeding.
Yield improvement of soybeans (cv. “Embrapa 48)

Phakopsora pachyrhizi = experiment: Spray treatment of soybeans preinfected with Phakopsora pachyrhizi: infection by pathogen; format: in vivo; settings: soybeans cv. RS10, 8-12% preinfection, spray application, 8 days after treatment; 133 g/ha pyraclostrobin
Description: (§1) During fruit formation, soybeans of the cultivar RS10 with 8-12% preinfection by Phakopsora pachyrhizi were treated by spray application using customary sprayers with a mixture of 133 g/ha of pyraclostrobin, 80 g/ha of CoCl2×6 H2O(=20 g/ha of cobalt) and 100 g/ha of prohexadione-Ca. Entirely untreated plants and plants treated with 133 g/ha of pyraclostrobin were used for comparison.

[3] = test system: soybeans of the cultivar RS10; experiment: Spray treatment of rust-preinfected soybeans: leaf drop and yield; format: in vivo, soybean; settings: soybeans cv. RS10, 8-12% preinfection by Phakopsora pachyrhizi, 8 days after treatment; pyraclostrobin 133 g/ha alone or with 80 g/ha CoCl2×6 H2O and 100 g/ha prohexadione-Ca
Description: as §1

Structure (SMILES): O.O.O.O.O.O.[Cl-].[Cl-].[Co+2] [CoCl2 × 6 H2O, CoCl2×6 H2O]
- Ethylene Evolution per Unit Leaf Weight [% of Control] [1]: 41 % of Control

Structure (SMILES): [Co+2] [Co^++]
- seed yield improvement above the control [2]: 22%

Structure (SMILES): O=C(O)c1ccccc1O [Salicylic Acid]
- Ethylene Evolution per Unit Leaf Weight [% of Control] [1]: 97 % of Control

Structure (SMILES): COC(=O)N(OC)c1ccccc1COc1ccn(-c2ccc(Cl)cc2)n1 [pyraclostrobin, methyl N-{2-[1-(4-chlorophenyl)-1H-pyrazol-3-yloxymethyl]phenyl}(N-methoxy)carbamate]
- ethylene formation in drought-stressed soybean leaves ([1]; summary in words of Example 2): inhibits ethylene formation
- infection by pathogen (Phakopsora pachyrhizi): less infection by pathogen than the entirely untreated plants
- seed yield improvement above the control [2]: 24%
- leaf drop [3]: considerable leaf drop
